Assay results as given in patent US20040235922A1, “Compositions and methods for inducing adipose tissue cell death” (priority 2003, published 2004).
“Also recorded” adds a separate entry of the source. Marks after values point to notes of the source that are not given here.

Test system: male and female ICR mice
Assay: 21 day oral (diet) treatment of mice: selected tissue weights, fat pads, BAT, muscle, organs (Example 1)
Type: in vivo
Details: 21 days; for Brown adipose tissue (BAT) mass compared to control/other treatments: 200 ppm clenbuterol in diet; for Brown adipose tissue (BAT) mass compared to control/other treatments / Rp and Epi/Par fat pad weights compared to control: p<0.05; for Rp and Epi/Par fat pad weights compared to control: 200 ppm clenbuterol, 800 ppm ractopamine in diet
Procedure: The effects of clenbuterol, a β2-AR agonist, and ractopamine, a β1/β2-AR agonist, on growth, adiposity and adipose tissue apoptosis in male and female mice have been tested by feeding diets containing control, 200 ppm clenbuterol, or 200 or 800 ppm ractopamine. Food intake (FI) was measured daily; body weight (BW) and temperatures (BT) were measured on days 0, 3, 7, 10, 14, 17, and 20. On day 21 mice were sacrificed, body composition was determined using PIXImus densitometry, and muscle and adipose tissues were collected. There were no treatment effects on BT, FI, BW, feed efficiency or body composition. Retroperitoneal (Rp) and epididymal/parametrial (Epi/Par) fat pad masses were reduced in both 800 ppm ractopamine (40±3 and 207±20 mg, respectively) and clenbuterol (35±7 and 211±22 mg) treated mice compared to control (66±8 and 319±30 mg, p<0.05). Brown adipose tissue (BAT) mass was greater (p<0.05) in clenbuterol treated mice compared to other treatments. Adipose tissue apoptosis (% DNA fragmentation) was increased in Epi/Par fat pads in clenbuterol (5.2+1.1%) and 800 ppm ractopamine (4.1±0.8%) treated mice compared to control (1.7+0.4%, p<0.05).
Animals: Five week old male (n=20) and female (n=20) ICR mice (Harlan Research Laboratories, Indianapolis, Ind.) were allowed to acclimate for one week prior to the experiment start date. Animals were housed singly in suspended wire cages and were provided ground rodent chow (ProLab® RMH 2500; Purina Mills, St. Louis, Mo.) and water ad libitum. Ambient room temperature was maintained and the light/dark cycle was 0600/1800 hours, respectively. Animals were cared for in accordance with the Guide for the Care and Use of Laboratory Animals (Institute of Laboratory Animal Resources Commission on Life Sciences National Research Council. Guide for the Care and Use of Laboratory Animals. National Academy of Sciences, 1996). Prior to the start of the study, animals were briefly anesthetized with isofluorane and an IPPT-200 transponder (programmable ID and temperature, BMDS, Seaford, Del.) was implanted subcutaneously between the scapulae.
Materials: Test articles included clenbuterol (Sigma Chemical Company, St. Louis, Mo., item # C5423) and ractopamine hydrochloride—Paylean® 9 (Elanco Animal Health, Indianapolis, Ind.). Clenbuterol is available as a pure product, and ractopamine is readily available as a type A medicated article. Paylean® 9 contains about 20 g ractopamine hydrochloride per kilogram in a ground corncob base. In order to achieve doses of 200 and 800 ppm it was necessary to add about […] of product per kilogram of diet. Control and clenbuterol diets were prepared with about 80 g of alphacel, which is a diluent used to mimic the effect of the corncob in the ractopamine product. The dose of clenbuterol used in this experiment was similar to those used in previous experiments with mice (Agbenyega E T, and Wareham A C. Effect of clenbuterol on skeletal muscle atrophy in mice induced by the glucocorticoid dexamethasone. Comp Biochem Physiol Comp Physiol 1992;102:141-145, Rothwell N. J., and Stock M J. Modification of body composition by clenbuterol in normal and dystrophic (mdx) mice. Biosci Rep 1985;5:755-760, Hyltander A, Svaninger G, and Lundholm K. The effect of clenbuterol on body composition in spontaneously eating tumour-bearing mice. Biosci Rep 1993;13:325-331, Hayes A, and Williams DA. Long-term clenbuterol administration alters the isometric contractile properties of skeletal muscle from normal and dystrophin-deficient mdx mice. Clin Exp Pharmacol Physiol 1994;21:757-765, Dupont-Versteegden EE. Exercise and clenbuterol as strategies to decrease the progression of muscular dystrophy in mdx mice. J Appl Physiol 1996;80:734-741). […]

[1] = 200 ppm in diet, male and female mice

**Q.** Which results are given for `CC(C)(C)NCC(O)c1cc(Cl)c(N)c(Cl)c1` (centres unmarked) [Clenbuterol, clenbuterol]?
**A.** Brown adipose tissue (BAT) mass compared to control/other treatments: increased BAT mass; Brown adipose tissue (BAT) mass compared to control/other treatments (listed as clenbuterol): greater; also recorded: significantly increased; Rp and Epi/Par fat pad weights compared to control: decreased mass of Rp and Epi/Par fat pads in females only; Rp and Epi/Par fat pad weights compared to control (listed as clenbuterol): reduced; BAT tissue weight, mean [1]: .124; Biceps tissue weight, mean [1]: .145; Epi/Par tissue weight, mean [1]: .211; Heart tissue weight, mean [1]: .164; Ing tissue weight, mean [1]: .150; Kidney tissue weight, mean [1]: .582; Liver tissue weight, mean [1]: 2.14; Rp tissue weight, mean [1]: .035; Retroperitoneal (Rp) fat pad mass (200 ppm in diet, mice, control 66±8 mg): 35 ± 7 mg; Epididymal/parametrial (Epi/Par) fat pad mass (200 ppm in diet, mice, control 319±30 mg): 211 ± 22 mg; Muscle mass / muscle weight, body protein or fat content (diet, ICR mice): no effect; Par weight, mean (females, 200 ppm in diet): .18^b; Epi weight, mean (males, 200 ppm in diet): .24^ab
